± gives the standard deviation of the averaged measurements.
Key:
Danio rerio embryo [1] = assay: EC10 Bladder size_Decrease; higher = less potent; details: exposure time: 4 dpf
Description: (§1)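 Zebrafish embryos (UFZ-OBI strain) were exposed from 2 hpf for 48 h (2 dpf) or 96 h (4 dpf) at 28 °C; spontaneous tail coiling was scored at 25 hpf. Morphological features from automated image analysis (FishInspector), heart rate and locomotor response were fitted with drc models. Quantal endpoints were dichotomised at 2.5 SD from controls and fitted with a log-logistic model; heart rate, pigmentation and STC were normalised to the replicate control mean. Betamethasone was tested as betamethasone dipropionate, diflorasone as diflorasone diacetate.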

Danio rerio embryo [2] = assay: EC50 Bladder size_Decrease; details: exposure time: 4 dpf
Description: as §1

Danio rerio embryo [3] = assay: EC20 Lack of SB; higher = less potent; details: exposure time: 4 dpf
Description: as §1

Danio rerio embryo [4] = assay: EC10 Eye-jaw distance_Decrease; higher = less potent; details: exposure time: 4 dpf
Description: as §1

Danio rerio embryo [5] = assay: EC50 Eye-jaw distance_Decrease; details: exposure time: 4 dpf
Description: as §1

Danio rerio embryo [6] = test system: Danio rerio embryo
Description: as §1

Danio rerio embryo [7] = assay: EC20 Body length_Decrease; higher = less potent
Description: as §1

Danio rerio embryo [8] = assay: EC20 LMR dark; higher = less potent; details: exposure time: 4 dpf
Description: as §1

Danio rerio embryo [9] = assay: EC20 Pericard size_Increase; higher = less potent
Description: as §1

Danio rerio embryo [10] = assay: EC20 Curvature_Increase; higher = less potent
Description: as §1

Danio rerio embryo [11] = assay: EC20 Bladder size_Decrease; higher = less potent; details: exposure time: 4 dpf
Description: as §1

Danio rerio embryo [12] = assay: EC50 Yolk sac size_Increase
Description: as §1

Danio rerio embryo [13] = assay: EC10 Any effect; higher = less potent
Description: as §1

Danio rerio embryo [14] = assay: EC20 Eye-jaw distance_Decrease; higher = less potent; details: exposure time: 4 dpf
Description: as §1

Danio rerio embryo [15] = assay: EC20 Otolith-eye distance_Decrease; higher = less potent; details: exposure time: 4 dpf
Description: as §1

Danio rerio embryo [16] = assay: EC10 Curvature_Increase; higher = less potent
Description: as §1

Danio rerio embryo [17] = assay: spontaneous tail coiling frequency (coils/min/embryo); higher = more spontaneous movement; details: 25 hpf
Description: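 Spontaneous tail coilings of zebrafish embryos exposed from 2 hpf were recorded at 24-25 hpf in 1-min videos and detected by a KNIME workflow from grey-value variance. Betamethasone was tested as the dipropionate, diflorasone as the diacetate.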

Danio rerio embryo [18] = assay: EC10 Body length_Decrease; higher = less potent
Description: as §1

Danio rerio embryo [19] = assay: EC50 Pericard size_Increase
Description: as §1

Danio rerio embryo [20] = assay: EC10 Otolith-eye distance_Decrease; higher = less potent; details: exposure time: 4 dpf
Description: as §1

Danio rerio embryo [21] = assay: EC20 Yolk sac size_Increase; higher = less potent
Description: as §1

Danio rerio embryo [22] = assay: EC50 Curvature_Increase
Description: as §1

Danio rerio embryo [23] = assay: EC10 LMR dark; higher = less potent; details: exposure time: 4 dpf
Description: as §1

Danio rerio embryo [24] = assay: EC20 Head trunk angle_Decrease; higher = less potent; details: exposure time: 2 dpf
Description: as §1

Danio rerio embryo [25] = assay: EC10 Pericard size_Increase; higher = less potent
Description: as §1

Danio rerio embryo [26] = assay: EC10 Yolk sac size_Increase; higher = less potent
Description: as §1

Danio rerio embryo [27] = details: exposure time: 4 dpf
Description: as §1

Danio rerio embryo [28] = assay: EC50 Body length_Decrease
Description: as §1

Danio rerio embryo [29] = assay: EC50 Otolith-eye distance_Decrease; details: exposure time: 4 dpf
Description: as §1

Danio rerio embryo [30] = assay: EC20 Any effect; higher = less potent
Description: as §1

SMILES: CCCCC(O)(Cn1cncn1)c1ccc(Cl)cc1Cl (configuration not stated) [Hexaconazole]
- EC10 Bladder size Decrease (Danio rerio embryo [1]): 6.28 µM
- EC50 Bladder size Decrease (Danio rerio embryo [2]): 10.3 µM
- EC20 Lack of SB (Danio rerio embryo [3]): 7.52 µM
- EC10 Eye-jaw distance Decrease (Danio rerio embryo [4]): 9.21 µM
- EC50 Eye-jaw distance Decrease (Danio rerio embryo [5]): 13.1 µM
- EC50 Any effect (Danio rerio embryo [6]; exposure time: 2 dpf): 19.5 µM
- EC50 Any effect (Danio rerio embryo [6]; exposure time: 4 dpf): 10.8 µM
- EC50 STC bell shape (Danio rerio embryo [6]; exposure time: 25 h): 23.4 µM
- EC20 Body length Decrease (Danio rerio embryo [7]; exposure time: 2 dpf): 23.5 µM
- EC20 Body length Decrease (Danio rerio embryo [7]; exposure time: 4 dpf): 13.7 µM
- EC20 LMR dark (Danio rerio embryo [8]): 3.68 µM
- EC20 Pericard size Increase (Danio rerio embryo [9]; exposure time: 2 dpf): 17.9 µM
- EC20 Pericard size Increase (Danio rerio embryo [9]; exposure time: 4 dpf): 16.9 µM
- EC20 Curvature Increase (Danio rerio embryo [10]; exposure time: 2 dpf): 18.8 µM
- EC20 Curvature Increase (Danio rerio embryo [10]; exposure time: 4 dpf): 13.7 µM
- EC20 Bladder size Decrease (Danio rerio embryo [11]): 7.52 µM
- EC50 Yolk sac size Increase (Danio rerio embryo [12]; exposure time: 2 dpf): 51.2 µM
- EC50 Yolk sac size Increase (Danio rerio embryo [12]; exposure time: 4 dpf): 9.95 µM
- EC10 Any effect (Danio rerio embryo [13]; exposure time: 2 dpf): 13.8 µM
- EC10 Any effect (Danio rerio embryo [13]; exposure time: 4 dpf): 8.34 µM
- EC20 Eye-jaw distance Decrease (Danio rerio embryo [14]): 10.5 µM
- EC20 Otolith-eye distance Decrease (Danio rerio embryo [15]): 19.7 µM
- EC10 Curvature Increase (Danio rerio embryo [16]; exposure time: 2 dpf): 17.5 µM
- EC10 Curvature Increase (Danio rerio embryo [16]; exposure time: 4 dpf): 11.8 µM
- spontaneous tail coiling frequency (Danio rerio embryo [17]; 5 µM): 10.3
- spontaneous tail coiling frequency (Danio rerio embryo [17]; 9.9 µM): 9.83 ± 1.7
- spontaneous tail coiling frequency (Danio rerio embryo [17]; 13.3 µM): 9.46 ± 0.4
- spontaneous tail coiling frequency (Danio rerio embryo [17]; 19.9 µM): 9.25 ± 2.5
- spontaneous tail coiling frequency (Danio rerio embryo [17]; 26.5 µM): 1.62 ± 0.91
- spontaneous tail coiling frequency (Danio rerio embryo [17]; 53 µM): 0
- spontaneous tail coiling frequency (Danio rerio embryo [17]; 79.6 µM): 0
- EC10 Body length Decrease (Danio rerio embryo [18]; exposure time: 2 dpf): 19.2 µM
- EC10 Body length Decrease (Danio rerio embryo [18]; exposure time: 4 dpf): 12.2 µM
- EC50 Pericard size Increase (Danio rerio embryo [19]; exposure time: 2 dpf): 31.5 µM
- EC50 Pericard size Increase (Danio rerio embryo [19]; exposure time: 4 dpf): 20.4 µM
- EC10 Otolith-eye distance Decrease (Danio rerio embryo [20]): 19.6 µM
- EC20 Yolk sac size Increase (Danio rerio embryo [21]; exposure time: 2 dpf): 47.2 µM
- EC20 Yolk sac size Increase (Danio rerio embryo [21]; exposure time: 4 dpf): 6.81 µM
- EC50 Curvature Increase (Danio rerio embryo [22]; exposure time: 2 dpf): 21.2 µM
- EC50 Curvature Increase (Danio rerio embryo [22]; exposure time: 4 dpf): 17.5 µM
- EC10 LMR dark (Danio rerio embryo [23]): 3.21 µM
- EC20 Head trunk angle Decrease (Danio rerio embryo [24]): 16 µM
- EC10 Pericard size Increase (Danio rerio embryo [25]; exposure time: 2 dpf): 12.8 µM
- EC10 Pericard size Increase (Danio rerio embryo [25]; exposure time: 4 dpf): 15.2 µM
- EC10 Yolk sac size Increase (Danio rerio embryo [26]; exposure time: 2 dpf): 45 µM
- EC10 Yolk sac size Increase (Danio rerio embryo [26]; exposure time: 4 dpf): 5.45 µM
- EC50 LMR dark (Danio rerio embryo [27]): 4.83 µM
- EC50 Body length Decrease (Danio rerio embryo [28]; exposure time: 2 dpf): 33.4 µM
- EC50 Body length Decrease (Danio rerio embryo [28]; exposure time: 4 dpf): 16.8 µM
- EC50 Otolith-eye distance Decrease (Danio rerio embryo [29]): 19.8 µM
- EC20 Any effect (Danio rerio embryo [30]; exposure time: 2 dpf): 15.7 µM
- EC20 Any effect (Danio rerio embryo [30]; exposure time: 4 dpf): 9.17 µM
